Experiments:
[1] = tested on: MB468 Breast Tumor Cells Implanted SC in SCID Mice; assay: tissue distribution, MB468 tumor-bearing SCID mice; type: in vivo
Experimental: For the in vitro amino acid uptake studies, all cells can be grown to monolayer confluency in T-175 culture flasks [Corning, Corning, N.Y.] (approx. 1×10^8 cells/flask) in Dulbecco's Modified Eagle's Medium (DMEM) [Sigma, St. Louis, Mo.] in a humidified incubator (37° C., 5% CO2/95% air). Media are supplemented with 10% fetal calf serum [Hyclone, Logan, Utah], and antibiotics (10,000 U/ml penicillin and 10 mg/ml streptomycin) (Sigma, St. Louis, Mo.). For tissue culture passage, monolayer cells are detached by gentle trypsinization, resuspended in complete media, and split 1:10 into new T-flasks. Cultures are passaged weekly, and fed fresh media every 2 to 3 days. To initiate tumor growth in SCID mice, 1×10^6 cells are injected s.c. bilaterally into the flanks (inguinal region) of the recipient animals using a 1 ml syringe with a 27 gauge needle. Ex vivo experiments can be performed with animals containing tumors weighing between 500 mg and 1 g, as estimated by caliper measurement (tumor weight=(π/6)*abc, where a, b and c are the tumor length, width and height, respectively). The compounds of the invention are further evaluated for their tumor specificity and selectivity in tumor-bearing animal models. One can evaluate and compare the transport, accumulation and tissue distribution of each compound in these in vivo animal studies. Tissue distribution of the compounds is measured in SCID mice (average weight, 20-25 g) bearing human tumors as follows. The candidate radioligands (20 uCi in 0.4 ml 0.9% NaCl) are injected into the tail vein of tumor-bearing mice. […] Tissues (blood, heart, liver, lungs, kidneys, bone, thyroid, muscle, brain and tumor) are excised, rinsed in saline, and blotted dry. The tissues are weighed, placed into 12×75 mm glass vials, the radioactivity determined with a gamma counter, and the percent dose/gram calculated. Total activities of blood and muscle are calculated by assuming that they account for 7% and 40% of the total body mass, respectively.

[2] = tested on: U87 glial blastoma; assay: in vitro amino acid uptake, U87 cells; type: cell-based, human
From the text: The inventive compounds have been evaluated in vitro for tumor binding specificity (i.e. uptake cells) using a variety of tumor cell lines available in the art, along with reference compounds such as Me-AIB and BCH. Detailed description of these assays can be found in Martarello et al. (2002) Journal of Medicinal Chemistry, 45:2250-2259 and McConathy et al. (2003) Nuclear Medicine and Biology, 30:477-490. These, so called “amino acid uptake studies” are typically carried out with radiolabeled compounds in at least five phenotypically different human tumor cell lines (e.g. A549 lung carcinoma, MB468 breast carcinoma, DU145 prostate carcinoma, SKOV3 ovarian carcinoma, and U87 glial blastoma). These tumor cell lines can be grown either in vitro or in vivo with severe combined immunodeficiency (SCID) mice as a host. The fore-mentioned tumor cell lines are available at the Winship Cancer Institute of Emory University.
For the in vitro amino acid uptake studies, all cells can be grown to monolayer confluency in T-175 culture flasks [Corning, Corning, N.Y.] (approx. 1×10^8 cells/flask) in Dulbecco's Modified Eagle's Medium (DMEM) [Sigma, St. Louis, Mo.] in a humidified incubator (37° C., 5% CO2/95% air). Media are supplemented with 10% fetal calf serum [Hyclone, Logan, Utah], and antibiotics (10,000 U/ml penicillin and 10 mg/ml streptomycin) (Sigma, St. Louis, Mo.). For tissue culture passage, monolayer cells are detached by gentle trypsinization, resuspended in complete media, and split 1:10 into new T-flasks. […]
In the in vitro studies the uptake rate of each amino acid compound is measured in each tumor line, as well as the dominant transport mechanisms of each tumor cell line. After trypsinization, cells are resuspended in serum-free media, then counted on a hemocytometer, with viability assessed through Trypan blue staining. […] The vials are placed in a Cobra-II gamma counter (Packard, Meriden, Conn.), with the activity per cell number determined. […] Saline washes are performed as described above, and the filtered cells radioactivity determined on the gamma counter. […]

## NC1(C(=O)O)CCC1[18F] [Anti-R,S 2-[^18F]FACBC, (R,S) anti-1-amino-2-[^18F]fluorocyclobutyl-1-carboxylic acid]
[1]; 15 Minutes
  % Dose/g blood: 3.26 % Dose/g
  % Dose/g bone: 1.46 % Dose/g
  % Dose/g brain: 0.23 % Dose/g
  % Dose/g heart: 2.21 % Dose/g
  % Dose/g kidney: 8.62 % Dose/g
  % Dose/g liver: 2.51 % Dose/g
  % Dose/g lung: 4.02 % Dose/g
  % Dose/g muscle: 1.29 % Dose/g
  % Dose/g pancreas: 36.85 % Dose/g
  % Dose/g spleen: 4.47 % Dose/g
  % Dose/g tumor: 2.71 % Dose/g
[1]; 30 Minutes
  % Dose/g blood: 2.39 % Dose/g
  % Dose/g bone: 1.31 % Dose/g
  % Dose/g brain: 0.20 % Dose/g
  % Dose/g heart: 1.89 % Dose/g
  % Dose/g kidney: 6.49 % Dose/g
  % Dose/g liver: 2.49 % Dose/g
  % Dose/g lung: 2.98 % Dose/g
  % Dose/g muscle: 1.12 % Dose/g
  % Dose/g pancreas: 35.25 % Dose/g
  % Dose/g spleen: 4.11 % Dose/g
  % Dose/g tumor: 2.83 % Dose/g
[1]; 60 Minutes
  % Dose/g blood: 1.00 % Dose/g
  % Dose/g bone: 0.92 % Dose/g
  % Dose/g brain: 0.15 % Dose/g
  % Dose/g heart: 1.27 % Dose/g
  % Dose/g kidney: 2.41 % Dose/g
  % Dose/g liver: 1.29 % Dose/g
  % Dose/g lung: 1.37 % Dose/g
  % Dose/g muscle: 1.07 % Dose/g
  % Dose/g pancreas: 19.20 % Dose/g
  % Dose/g spleen: 3.05 % Dose/g
  % Dose/g tumor: 2.19 % Dose/g
[1]; 120 Minutes
  % Dose/g blood: 0.35 % Dose/g
  % Dose/g bone: 0.71 % Dose/g
  % Dose/g brain: 0.13 % Dose/g
  % Dose/g heart: 0.69 % Dose/g
  % Dose/g kidney: 0.89 % Dose/g
  % Dose/g liver: 0.56 % Dose/g
  % Dose/g lung: 0.51 % Dose/g
  % Dose/g muscle: 0.66 % Dose/g
  % Dose/g pancreas: 7.96 % Dose/g
  % Dose/g spleen: 1.01 % Dose/g
  % Dose/g tumor: 1.44 % Dose/g
[2]; U87, No inhibitor
  % Dose Uptake/0.5e6 Cells: 8.28 +/− 0.45 % Dose Uptake/0.5e6 Cells
[2]; U87, inhibitor BCH (10 mM)
  % Dose Uptake/0.5e6 Cells: 2.48 +/− 0.23 % Dose Uptake/0.5e6 Cells
[2]; U87, inhibitor MeAlB (10 mM)
  % Dose Uptake/0.5e6 Cells: 5.41 +/− 0.64 % Dose Uptake/0.5e6 Cells

Source: US8834841B2, “Imaging agents” (priority 2005, dated 2014)
